Measurements reported in US12180187B2, “1-phenyl-5-azinylpyrazolyl-3-oxyalkyl acids and their use for controlling unwanted plant growth” (BAYER AKTIENGESELLSCHAFT, priority 2019, dated 2024).

Legend:
VERPE [1] = assay: Post-emergence action against VERPE, 1.28 kg/ha; format: in vivo, Veronica persica; settings: dosage 1280 g/ha, visual rating about 3 weeks after treatment vs untreated controls (100% = plants died)
Experimental: (§1) • a) Seeds of mono- and dicotyledonous weed plants are placed in plastic pots in sandy loam soil (twin sowing with one species each of mono- or dicotyledonous weed plants per pot), covered with soil and cultivated in a greenhouse under controlled growth conditions. 2 to 3 weeks after sowing, the test plants are treated at the one-leaf stage. The compounds of the invention, formulated in the form of wettable powders (WP) or as emulsion concentrates (EC), are applied to the green parts of the plants as aqueous suspension or emulsion with addition of 0.5% additive at a water application rate equivalent to 600 litres per hectare. After the test plants have been kept in the greenhouse under optimum growth conditions for about 3 weeks, the activity of the preparations is rated visually in comparison to untreated controls. For example, 100% activity=the plants have died, 0% activity=like control plants. As shown by the results, compounds of the general formula (I) of the invention, in post-emergence treatment, have very good herbicidal efficacy (90% to 100% herbicidal action) against harmful plants such as Abutilon theophrasti, Digitaria sanguinalis, Echinochloa crus-galli, Matricaria inodora, Poa annua, at an application rate of 1.28 kg of active substance per hectare.

POAAN [2] = assay: Pre-emergence action against POAAN, 1280 g/ha; format: in vivo, Poa annua; settings: visual scoring after about 3 weeks vs untreated controls, 100% = plants have died, 0% = like control plants
Excerpt: (§2) 1. Pre-Emergence Herbicidal Effect and Crop Plant Compatibility a) Seeds of mono- and dicotyledonous weed plants are placed in plastic pots in sandy loam soil (doubly sown with one species each of mono- or dicotyledonous weed plants per pot) and covered with soil. The compounds of the invention, formulated in the form of wettable powders (WP) or as emulsion concentrates (EC), are then applied onto the surface of the covering soil as aqueous suspension or emulsion with addition of 0.5% additive at a water application rate equivalent to 600 litres per hectare. After the treatment, the pots are placed in a greenhouse and kept under good growth conditions for the trial plants. After about 3 weeks, the effect of the preparations is scored visually in comparison with untreated controls as percentages. For example, 100% activity=the plants have died, 0% activity=like control plants. 1. Pre-Emergence Effectiveness Tables 1 to 12 below show the effects of selected compounds of the general formula (I) according to Tables 1 and 2 on various harmful plants and at an application rate corresponding to 1280 g/ha, which were obtained by the experimental procedure mentioned above.

DIGSA [3] = assay: Post-emergence action against DIGSA, 1.28 kg/ha; format: in vivo, Digitaria sanguinalis; settings: dosage 1280 g/ha, visual rating about 3 weeks after treatment vs untreated controls
Experimental: as §1

DIGSA [4] = assay: Pre-emergence action against DIGSA, 1280 g/ha; format: in vivo, Digitaria sanguinalis; settings: visual scoring after about 3 weeks vs untreated controls, 100% = plants have died, 0% = like control plants
Excerpt: as §2

VERPE [5] = assay: Pre-emergence action against VERPE, 1280 g/ha; format: in vivo, Veronica persica; settings: scored visually after about 3 weeks vs untreated controls (100% = plants have died)
Excerpt: as §2

AMARE [6] = assay: Pre-emergence action against AMARE, 1280 g/ha; format: in vivo, Amaranthus retroflexus; settings: scored visually after about 3 weeks vs untreated controls (100% = plants have died)
Excerpt: as §2

LOLRI = assay: Pre-emergence action against LOLRI, 1280 g/ha; format: in vivo, Lolium rigidum; settings: visual scoring after about 3 weeks vs untreated controls, 100% = plants have died, 0% = like control plants
Excerpt: as §2

ALOMY = assay: Post-emergence action against ALOMY, 1.28 kg/ha; format: in vivo, Alopecurus myosuroides; settings: dosage 1280 g/ha, visual rating about 3 weeks after treatment vs untreated controls
Experimental: as §1

SETVI = assay: Pre-emergence action against SETVI, 1280 g/ha; format: in vivo, Setaria viridis; settings: visual scoring after about 3 weeks vs untreated controls, 100% = plants have died, 0% = like control plants
Excerpt: as §2

MATIN [7] = assay: Pre-emergence action against MATIN, 1280 g/ha; format: in vivo, Tripleurospermum inodorum (Matricaria inodora); settings: scored visually after about 3 weeks vs untreated controls (100% = plants have died)
Excerpt: as §2

AMARE [8] = assay: Post-emergence action against AMARE, 1.28 kg/ha; format: in vivo, Amaranthus retroflexus; settings: dosage 1280 g/ha, visual rating about 3 weeks after treatment vs untreated controls (100% = plants died)
Experimental: as §1

POAAN [9] = assay: Post-emergence action against POAAN, 1.28 kg/ha; format: in vivo, Poa annua; settings: dosage 1280 g/ha, visual rating about 3 weeks after treatment vs untreated controls
Experimental: as §1

MATIN [10] = assay: Post-emergence action against MATIN, 1.28 kg/ha; format: in vivo, Tripleurospermum inodorum (Matricaria inodora); settings: dosage 1280 g/ha, visual rating about 3 weeks after treatment vs untreated controls (100% = plants died)
Experimental: as §1

STEME [11] = assay: Pre-emergence action against STEME, 1280 g/ha; format: in vivo, Stellaria media; settings: scored visually after about 3 weeks vs untreated controls (100% = plants have died)
Excerpt: as §2

ECHCG = assay: Pre-emergence action against ECHCG, 1280 g/ha; format: in vivo, Echinochloa crus-galli; settings: visual scoring after about 3 weeks vs untreated controls, 100% = plants have died, 0% = like control plants
Excerpt: as §2

STEME [12] = assay: Post-emergence action against STEME, 1.28 kg/ha; format: in vivo, Stellaria media; settings: dosage 1280 g/ha, visual rating about 3 weeks after treatment vs untreated controls (100% = plants died)
Experimental: as §1

Row | Structure (SMILES) | Post-emergence action against VERPE (VERPE [1]) [%] | Pre-emergence action against POAAN (POAAN [2]) [%] | Post-emergence action against DIGSA (DIGSA [3]) [%] | Pre-emergence action against DIGSA (DIGSA [4]) [%] | Pre-emergence action against VERPE (VERPE [5]) [%] | Pre-emergence action against AMARE (AMARE [6]) [%] | Pre-emergence action against LOLRI (LOLRI) [%] | Post-emergence action against ALOMY (ALOMY) [%] | Pre-emergence action against SETVI (SETVI) [%] | Pre-emergence action against MATIN (MATIN [7]) [%] | Post-emergence action against AMARE (AMARE [8]) [%] | Post-emergence action against POAAN (POAAN [9]) [%] | Post-emergence action against MATIN (MATIN [10]) [%] | Pre-emergence action against STEME (STEME [11]) [%] | Pre-emergence action against ECHCG (ECHCG) [%] | Post-emergence action against STEME (STEME [12]) [%]
1 | COC(=O)C(C)Oc1nn(-c2ccccc2)c(-c2ccc(C)nc2)c1Cl (centres unmarked) [VII-013] | 100 | 100 | 90 | 90 | 100 | – | – | – | – | – | – | – | – | – | – | –
2 | COC(=O)C(C)Oc1nn(-c2ccccc2)c(-c2ccc(Cl)nc2)c1Cl (centres unmarked) [VII-017] | 100 | 90 | 90 | 90 | 100 | 90 | – | – | – | – | – | – | – | – | – | –
3 | CCOC(=O)COc1nn(-c2ccccc2F)c(-c2ccc(F)nc2)c1SC [VII-021] | – | 90 | – | – | – | 90 | – | – | – | – | – | – | – | – | – | –
4 | COC(=O)COc1nn(-c2ccccc2F)c(-c2ccc(OC)nc2)c1Br [VII-022] | 90 | – | – | – | 90 | – | – | – | – | – | – | – | – | – | – | –
5 | CSc1c(OCC(=O)O)nn(-c2ccccc2F)c1-c1ccc(F)nc1 [VII-056] | 90 | 90 | 90 | 100 | – | 90 | 90 | 100 | 90 | 90 | 100 | 100 | 100 | 90 | – | –
6 | CCOC(=O)COc1nn(-c2ccccc2F)c(-c2ccc(OCC)nc2)c1Br [VII-127] | – | – | – | – | – | – | – | – | – | – | – | – | – | 90 | – | –
7 | CCOC(=O)COc1nn(-c2ccccc2F)c(-c2cnc(F)c(F)c2)c1Br [VII-148] | – | 100 | 100 | 100 | 90 | 100 | 90 | 100 | 90 | 90 | 100 | 100 | 100 | 90 | 90 | –
8 | COC(=O)COc1nn(-c2cc(F)ccc2F)c(-c2ccnc(F)c2)c1C#N [VIII-008] | 90 | 100 | 90 | 100 | 100 | 100 | 100 | 100 | 100 | 100 | 90 | 100 | 90 | 100 | 100 | 90
